Several values for one entry are separate records, joined by “and”; a condition that tells them apart may be missing. Identical values can stand only once.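 The compound was tested at five concentrations on cells cultured in 96-well plates, with a 48-hour exposure period. GI50 is the concentration that inhibits growth by half. TGI: total growth inhibition.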
Legend:
Assay in all cases: NCI-60 cell line screen, 48 h
OVCAR-8 ovarian = test system: OVCAR-8 ovarian
MCF7 breast = test system: MCF7 breast
RXF 393 renal = test system: RXF 393 renal
K-562 leukemia = test system: K-562 leukemia
HCT-15 colon = test system: HCT-15 colon
HT29 colon = test system: HT29 colon
A549 NSCLC = test system: A549 NSCLC
EKVX NSCLC = test system: EKVX NSCLC
MALME-3M melanoma = test system: MALME-3M melanoma
ACHN renal = test system: ACHN renal

SMILES	GI50 (OVCAR-8 ovarian) [µM]	TGI (OVCAR-8 ovarian)	GI50 (MCF7 breast) [µM]	TGI (MCF7 breast) [µM]	GI50 (RXF 393 renal) [µM]	TGI (RXF 393 renal) [µM]	GI50 (K-562 leukemia) [µM]	TGI (K-562 leukemia)	GI50 (HCT-15 colon) [µM]	TGI (HCT-15 colon)	GI50 (HT29 colon) [µM]	TGI (HT29 colon)	GI50 (A549 NSCLC) [µM]	TGI (A549 NSCLC)	GI50 (EKVX NSCLC) [µM]	TGI (EKVX NSCLC)	GI50 (MALME-3M melanoma) [µM]	TGI (MALME-3M melanoma)	GI50 (ACHN renal) [µM]	TGI (ACHN renal)
CC(C)=C[C@@H]1C[C@H](C)[C@H]2CC[C@H](C)c3c(O)c(OC4OC(C)C(O)C(O)C4O)c(C)c1c32 (stereo partly specified)	14.6	28 µM	13.9	27.7	11	23.2	3.97	19.6 µM	14.5	27.6 µM	4.07	15.6 µM	11.9	24.2 µM	19.3	34.2 µM	12.9	29.8 µM	14.1	27.1 µM
CNC(=O)CCN1CCN(CC/C=C2\c3ccccc3Sc3ccc(Cl)cc32)CC1	14.4	32.2 µM	4.91	18.9	3.55	20.4	4.2	> 37.1 µM	6.57	20.6 µM	3.11	12.4 µM	10.7	28.5 µM	14.5	30.6 µM	2.59	6.16 µM	13.8	27.1 µM
Cc1cc(C)c2nc3c(c(C(O)C4CCCCN4)c2c1)CC/C3=C\c1ccc(Cl)cc1 (stereo unspecified)		> 100 µM		> 100		> 100		> 100 µM		> 100 µM		> 100 µM		> 100 µM		> 100 µM		> 100 µM		> 100 µM
COc1cc(-c2nc(-c3ccccc3)c(-c3ccccc3)[nH]2)cc(OC)c1O	26.5	83.2 µM	13.2	43.4	14.7	31.2	21	> 100 µM	13.3	41.4 µM	17.4	35.6 µM	19	57 µM			18.8	40.3 µM	14.2	33.1 µM
CN(C)CCCN1c2ccccc2Sc2ccc(C(F)(F)F)cc21	1.73	3.33 µM and 30 µM	1.6		1.32		2.03	4.08 µM and 30.9 µM	1.92	3.73 µM and 31 µM and 31.1 µM	1.35	2.82 µM and 25.3 µM	1.89	3.83 µM and 31.9 µM and 31.4 µM	1.84	4.75 µM and 35.7 µM and 29.3 µM	1.56	3.15 µM and 28.4 µM and 30.1 µM	1.81	3.85 µM and 28.8 µM and 28.2 µM
COC(=O)c1c(C)nc(C)c2c1C(=O)C(Br)=C(NCc1ccccc1)C2=O	2.51	7.24 µM	1.3	3.29	3.08	9.69	3.36	> 100 µM	2.76	8.26 µM	2.97	7.96 µM	2.56	6.64 µM	2.12	5.35 µM	1.47	2.85 µM	3.08	9.97 µM
O=[N+]([O-])c1ccccc1N=Nc1c(O)[nH]c2c(Cl)cccc12		37.4 µM		> 89.6		98.1		> 100 µM		> 100 µM		99.4 µM		> 58.6 µM		> 61.5 µM		> 35.2 µM		> 45.8 µM

Reference: PubChem BioAssay (NCI)
